Article PMC6347765, “Streamlined SMFA and mosquito dark-feeding regime significantly improve malaria transmission-blocking assay robustness and sensitivity” (Malaria Journal, 2019)

Experiments:
[1] = tested on: P. falciparum NF54 in An. coluzzii; assay: Standard membrane feeding assay (SMFA) with AMPs added to gametocytaemic blood mix; oocyst counts in mosquito midguts; assay type: in vivo, Plasmodium falciparum; details: AMP at 50 μM final concentration in gametocytaemic blood mix fed to An. coluzzii; vs PBS-treated control; oocysts counted seven days post-infection; P < 0.001; Fig. 4a
Description: The An. coluzzii N’gousso strain colonized from field-collected mosquitoes of the An. gambiae M molecular form in 2006 in Yaoundé, Cameroon, and the P. falciparum NF54 strain (MRA-1000, patient E) obtained from the MR4 were used for all the experiments reported in this paper. Mosquitoes were reared and maintained at standard insectary conditions (27 ± 1 °C and 70 ± 5%) humidity on a 12:12 light/dark (L:D) cycle: 11.5 h full light of ~ 300 lx starting at 6 am and 11.5 h darkness starting at 6 p.m., separated by 0.5 h dawn and dusk transitions, respectively. All mosquito infection experiments took place between 2 and 4 p.m.
Day 16/17. Gametocyte feeding A 14/15-day old gametocyte culture is used for mosquito infections. Three hours before gametocyte feed, the fructose-soaked cotton ball is removed from the cups to starve the mosquitoes, and mosquito cups are placed in the dark inside a second container for biosafety reasons. The container is placed in an incubator set at standard insectary conditions described above.
One hour before feeding heat-inactivated human serum (56 °C for 30 min) is defrosted at RT and placed on heat block at 37 °C. […]
The gametocyte culture is hand-swirled and placed on 37 °C heat block. […] The number of exflagellation centres formed in the 4 × 4 grid is determined under the microscope (10× objective). […]

P. berghei ookinetes = details: 50 μM concentration; in vitro produced P. berghei ookinetes; cited from earlier work
Excerpt: (§1) AMPs from various sources with different levels of plasmodicidal activities have been previously discovered. […] Both AMPs were previously shown to induce parasite killing.

P. berghei = details: in both An. coluzzii and Anopheles stephensi; cited from earlier work
Excerpt: as §1

P. falciparum = details: mixed with gametocytic blood; An. coluzzii; no reference printed in this sentence (preceding sentence ref 34); cited from earlier work
Excerpt: as §1

[2] = tested on: different Plasmodium species; details: injection into anopheline mosquitoes previously infected with different Plasmodium species; cited from earlier work
Excerpt: as §1

| Substance | transmission-blocking activity (oocyst infection intensity) compared to control [1] | killing of ookinetes (P. berghei ookinetes) | infection prevalence and intensity (P. berghei) | P. falciparum oocyst prevalence and intensity (P. falciparum) | effect on parasite sporogony [2] |
| --- | --- | --- | --- | --- | --- |
| melittin | significant transmission-blocking activity | kill | significant decrease in infection prevalence and intensity | reduce P. falciparum oocyst prevalence and intensity |  |
| magainin | significant transmission-blocking activity |  |  |  | completely block parasite sporogony |
